Measured values taken from patent publication US20160257697A1, “THIOPHENE-SUBSTITUTED TETRACYCLIC COMPOUNDS AND METHODS OFUSE THEREOF FOR THE TREATMENT OF VIRAL DISEASES” (priority 2013, published 2016).
Like-named read-outs stand apart in the source and are kept apart here.

What was measured:
Test in all cases: microbe, parasite or virus in culture
Format in all cases: cell-based, Hepatitis C virus (HCV)
HCV replicon 2B = conditions: Replicon Assay A
Procedure, shortened: (§1)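 Replicon cells were seeded at 2000 cells/well with test compound in 0.5% DMSO and 5% FBS, then harvested on day 3. Replicon RNA was measured by multiplex TaqMan real-time RT-PCR, using cyclophilin RNA as the endogenous control and quantified against standard curves of HCV replicon total RNA.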

HCV replicon 1AY93H = conditions: Replicon Assay A
Procedure, shortened: as §1

HCV replicon 1A = conditions: Replicon Assay A
Procedure, shortened: as §1

HCV replicon 1AQ30D = conditions: Replicon Assay B
HCV replicon 1B = conditions: Replicon Assay B
[1] = read-out: 2B IC50, HCV replicon 2B
[2] = read-out: 1A Y93H IC50, HCV replicon 1A Y93H
[3] = Hepatitis C virus, read-out: 1A Q30D IC50, HCV replicon 1A Q30D
[4] = Hepatitis C virus, HCV replicon 1B
[5] = read-out: 1A Y93H IC50, replicon 1AY93H
[6] = read-out: 1A Q30D IC50, replicon 1AQ30D
[7] = Hepatitis C virus, read-out: 2B IC50 (nM), replicon 2B
[8] = Hepatitis C virus, read-out: 1A Y93H IC50 (nM), replicon 1AY93H
[9] = Hepatitis C virus, read-out: 1A Q30D IC50 (nM), replicon 1AQ30D

COC(=O)NC(C(=O)N1[C@@H]2C[C@@H]2C[C@H]1c1ncc(-c2ccc3c(c2)cc2n3C(c3ccc(C(F)F)s3)Oc3cc(-c4cnc([C@@H]5CCCN5C(=O)[C@@H](NC(=O)OC)C(C)C)[nH]4)cc(F)c3-2)[nH]1)C1CCOC(C)(C)C1 (single isomer, unassigned) [Compound 415]
IC50 (HCV replicon 2B; [1]): 0.0126 nM
IC50 (HCV replicon 1AY93H; [2]): 0.0042 nM
IC50 (HCV replicon 1A; HCV replicon 1A): 2.3 pM
IC50 (HCV replicon 1AQ30D; [3]): 0.0424 nM
IC50 (HCV replicon 1B; [4]): 2.4 pM

COC(=O)N[C@H](C(=O)N1CCC[C@H]1c1ncc(-c2cc(F)c3c(c2)OC(c2ccc(CC4CC4)s2)n2c-3cc3cc(-c4cnc([C@@H]5CCCN5C(=O)[C@@H](NC(=O)OC)C5CCOCC5)[nH]4)ccc32)[nH]1)C(C)C (single isomer, unassigned) [Compound 356]
IC50 (HCV replicon 2B; read-out: 2B IC50, replicon 2B): 0.0175 nM
IC50 (HCV replicon 1AY93H; [5]): 0.0214 nM
IC50 (HCV replicon 1A; Hepatitis C virus, replicon 1A): 2.5 pM
IC50 (HCV replicon 1AQ30D; [6]): 0.152 nM
IC50 (HCV replicon 1B; Hepatitis C virus, replicon 1B): 2.5 pM

COC(=O)NC(C(=O)N1CCC[C@H]1c1ncc(-c2ccc3c(c2)cc2n3C(c3ccc(C4CC4)s3)Oc3cc(-c4cnc([C@@H]5CCCN5C(=O)[C@@H](NC(=O)OC)C(C)C)[nH]4)cc(F)c3-2)[nH]1)C1CCCCO1 (single isomer, unassigned) [Compound 342]
IC50 (HCV replicon 2B; read-out: 2B IC50, replicon 2B): 0.166 nM
IC50 (HCV replicon 1AY93H; [5]): 0.069 nM
IC50 (HCV replicon 1A; replicon 1A): 1.6 pM
IC50 (HCV replicon 1AQ30D; [6]): 1.07 nM
IC50 (HCV replicon 1B; replicon 1B): 2.6 pM

COC(=O)NC(C(=O)N1CCCC1c1ncc(-c2cc(F)c3c(c2)OC(c2cc4c(s2)CC(C)(C)C4)n2c-3cc3cc(-c4cnc(C5CCCN5C(=O)C(NC(=O)OC)C(C)C)[nH]4)ccc32)[nH]1)C(C)C (mixture of isomers) [Compound 846]
IC50 (HCV replicon 2B; HCV replicon 2B, read-out: 2B IC50): 0.039 nM
IC50 (HCV replicon 1AY93H; HCV replicon 1A Y93H, read-out: 1A Y93H IC50): 0.034 nM
IC50 (HCV replicon 1A; HCV replicon 1A): 2.9 pM
IC50 (HCV replicon 1AQ30D; HCV replicon 1A Q30D, read-out: 1A Q30D IC50): 0.302 nM
IC50 (HCV replicon 1B; HCV replicon 1B): 2.8 pM

COC(=O)N[C@H](C(=O)N1CCC[C@@H]1c1ncc(-c2cc(F)c3c(c2)OC(c2ccc(C(C)C)s2)n2c-3cc3cc(-c4c[nH]c([C@@H]5CCCN5C(=O)[C@H](NC(=O)OC)C5C[C@@H](C)O[C@@H](C)C5)n4)ccc32)[nH]1)C(C)C (stereo partly shown) [Compound 234]
IC50 (HCV replicon 2B; [7]): 0.02 nM
IC50 (HCV replicon 1AY93H; [8]): 0.004 nM
IC50 (HCV replicon 1A; replicon 1A): 3.3 pM
IC50 (HCV replicon 1AQ30D; [9]): 0.05 nM
IC50 (HCV replicon 1B; Hepatitis C virus, replicon 1B): 2.8 pM

COC(=O)NC(C(=O)N1CCC[C@H]1c1ncc(-c2ccc3c(c2)cc2n3C(c3cc4c(s3)CCC4)Oc3cc(-c4cnc([C@@H]5CCCN5C(=O)[C@@H](NC(=O)OC)C(C)C)[nH]4)cc(C)c3-2)[nH]1)C1CCOC(C)(C)C1 (single isomer, unassigned) [Compound 853]
IC50 (HCV replicon 2B; [1]): 0.011 nM
IC50 (HCV replicon 1AY93H; [2]): 0.085 nM
IC50 (HCV replicon 1A; HCV replicon 1A): > 3.6 pM
IC50 (HCV replicon 1AQ30D; [3]): 0.705 nM
IC50 (HCV replicon 1B; HCV replicon 1B): 4.2 pM

COC(=O)N[C@H](C(=O)N1C[C@H](F)C[C@H]1c1ncc(-c2ccc3c(c2)cc2n3C(c3cc4ccccc4s3)Oc3cc(-c4cnc([C@@H]5CCCN5C(=O)[C@@H](NC(=O)OC)C5CCOCC5)[nH]4)ccc3-2)[nH]1)C(C)C (single isomer, unassigned) [Compound 625]
IC50 (HCV replicon 2B; [1]): 0.145 nM
IC50 (HCV replicon 1AY93H; [2]): 0.0049 nM
IC50 (HCV replicon 1A; HCV replicon 1A): 1.9 pM
IC50 (HCV replicon 1AQ30D; [3]): 0.359 nM
IC50 (HCV replicon 1B; [4]): 3.1 pM

CCCc1ccc(C2Oc3cc(-c4cnc([C@@H]5CCCN5C(=O)[C@@H](NC(=O)OC)C(C)C)[nH]4)cc(F)c3-c3cc4cc(-c5cnc([C@@H]6CCCN6C(=O)C(NC(=O)OC)C6C[C@@H](C)O[C@@H](C)C6)[nH]5)ccc4n32)s1 (single isomer, unassigned) [Compound 369]
IC50 (HCV replicon 2B; read-out: 2B IC50, replicon 2B): 0.115 nM
IC50 (HCV replicon 1AY93H; [5]): 0.0739 nM
IC50 (HCV replicon 1A; Hepatitis C virus, replicon 1A): 1 pM
IC50 (HCV replicon 1AQ30D; [6]): 0.912 nM
IC50 (HCV replicon 1B; Hepatitis C virus, replicon 1B): 1.8 pM

COC(=O)N[C@H](C(=O)N1CCC[C@H]1c1ncc(-c2cc(F)c3c(c2)OC(c2cc4nccnc4s2)n2c-3cc3cc(-c4cnc([C@@H]5CCCN5C(=O)[C@@H](NC(=O)OC)C(C)C)[nH]4)ccc32)[nH]1)C(C)C (single isomer, unassigned) [Compound 48]
IC50 (HCV replicon 2B; read-out: 2B IC50, replicon 2B): 0.016 nM
IC50 (HCV replicon 1AY93H; [5]): 0.027 nM
IC50 (HCV replicon 1A; replicon 1A): 1.9 pM
IC50 (HCV replicon 1AQ30D; [9]): 0.54 nM
IC50 (HCV replicon 1B; Hepatitis C virus, replicon 1B): 1.7 pM

COC(=O)N[C@H](C(=O)N1CCC[C@H]1c1ncc(-c2cc(F)c3c(c2)OC(c2ccc(CC4CC4)s2)n2c-3cc3cc(-c4cnc([C@@H]5CCCN5C(=O)[C@@H](NC(=O)OC)C(C)C)[nH]4)ccc32)[nH]1)C(C)C (single isomer, unassigned) [Compound 54]
IC50 (HCV replicon 2B; replicon 2B, read-out: 2B IC50): 0.03 nM
IC50 (HCV replicon 1AY93H; replicon 1AY93H, read-out: 1A Y93H IC50): 0.005 nM
IC50 (HCV replicon 1A; replicon 1A): 2 pM
IC50 (HCV replicon 1AQ30D; replicon 1AQ30D, read-out: 1A Q30D IC50): 0.2 nM
IC50 (HCV replicon 1B; replicon 1B): 1.2 pM

CCc1ccc(C2Oc3cc(-c4cnc([C@@H]5CCCN5C(=O)[C@@H](NC(=O)OC)C(C)C)[nH]4)cc(F)c3-c3cc4cc(-c5cnc([C@@H]6CCCN6C(=O)[C@H](NC(=O)OC)C6COCC(C)(C)C6)[nH]5)ccc4n32)s1 (stereo partly shown) [Compound 150]
IC50 (HCV replicon 2B; [7]): 0.007 nM
IC50 (HCV replicon 1AY93H; [8]): 0.004 nM
IC50 (HCV replicon 1A; Hepatitis C virus, replicon 1A): 2.4 pM
IC50 (HCV replicon 1AQ30D; [9]): 0.094 nM
IC50 (HCV replicon 1B; Hepatitis C virus, replicon 1B): 1.9 pM
